Source: patent publication US9493466B2, “Treatment of cancer with TOR kinase inhibitors” (Signal Pharmaceuticals, LLC, priority 2011, dated 2016)

Tests used:
U87MG tumors = assay: CD31 immunohistochemistry in U87MG tumors; format: in vivo, mice; settings: 5 mg/kg BID oral for 4 days; p<0.001
Experimental: Mechanism of action studies. To determine the mechanism of action of Compound 1, mice bearing U87MG tumors of approximately 500 mm^3 were dosed orally with vehicle or Compound 1 at 5 mg/kg BID for 4 days. The positive control, rapamycin, was dosed at 4 mg/kg Q3D for 4 days. Two hours after the 7th dose of Compound 1 on day 4, animals were euthanized and tumors were dissected out and snap frozen in liquid nitrogen. In the rapamycin-treated group tumors were collected at 2 hour after the 2nd dose on day 4. The tumors were processed for immunohistochemistry (IHC) or TUNEL.
Immunohistochemistry. Five to ten micron (5-10 μm) thick cryostat sections were used for IHC. The expression of the cell proliferation marker Ki67 was evaluated by IHC using anti-Ki67 antibody. […] The sections were visualized with a Nikon E800 microscope equipped with fluorescence detection equipment and a digital camera attached to a computer.
Quantitation of Immunohistochemistry. The tissues sections processed for apoptosis or immunostained for proliferating cells (Ki67) or blood vessels were quantitated using Metamorph software. Using 20× objective, 5 different fields from each section, 2-4 sections from each tumor, and 3-4 tumors from each treatment group or control were used for quantitation. The area of interest was expressed as the percent threshold area of the total area. […]

[1] = test system: PC-3, A549, HCT 116, U87-MG, MDA-MB-231, NCI-H23, NCI-H460, T47D; assay: Growth inhibition assay for cell lines with varying sensitivity to rapamycin; format: cell-based; settings: 3 days; including cell types partially sensitive or insensitive to Rapamycin; FIG. 8
Experimental: Growth Inhibition Assay for Cell Lines with Varying Sensitivity to Rapamycin (Compound 1). Cells were plated in 96-well plates at densities determined for each cell line and the following day were treated with a range of Compound 1 concentrations. The cells were incubated for 3 days at 37° C. and then […] of WST-1 (Roche) for PC-3, A549, HCT 116, U87-MG, MDA-MB-231, and NCI-H23) or […] CellTiter-Glo reagent (Promega) for NCI-H460, T47D) was added to each well and the assay was completed according to manufacturer protocols. The percentage inhibition at each concentration of compound was normalized to the DMSO control values. The percentage inhibition was determined for each replicate and then the 3 values were averaged for each set of triplicate wells. All data were analyzed using XLfit from IDBS. The formula used for determining IC50 in Xlfit was model number 205, which utilizes a 4-parameter logistic model or sigmoidal dose-response model to calculate IC50 values. IC50 values are reported as an average.
Rapamycin effects on proliferation tend to plateau in most cell lines.

## CO[C@H]1CC[C@H](N2C(=O)CNc3ncc(-c4ccc(C(C)(C)O)nc4)nc32)CC1 [Compound 1, 7-(6-(2-hydroxypropan-2-yl)pyridin-3-yl)-1-((1r,4r)-4-methoxycyclohexyl)-3,4-dihydropyrazino-[2,3-b]pyrazin-2(1H)-one]
U87MG tumors
  reduction of CD31-positive blood vessels compared with vehicle: 50%
[1]
  cell growth inhibition: potent cell growth inhibition
